Experiment: Human HepG2 cell viability assay in 384 well format
Type: toxicity, cell-based
Set-up: dose 125 nL, time 70.5 hour; concentration not given beside the values
Settings: HepG2 cells, read-out: Inhibition

SMILES | cytotoxicity at 70.5 h [%]
CS(=O)(=O)NC[C@]12COC[C@H]1CN(C(=O)N1CCCC1)C2 | -4.24
O=C(c1ccccc1)N1CC[C@H]2C[C@@H](c3nnc(C4CC4)o3)O[C@@H]2C1 | -4.88
CS(=O)(=O)NC[C@]12COC[C@H]1CN(C(=O)CC1CCCC1)C2 | -13.4
Cc1ccoc1C(=O)N1CC[C@H]2C[C@H](c3nnc(C4CC4)o3)O[C@@H]2C1 | -11.4
Cc1cccc(CO[C@@H]2CC[C@H]3[C@H]2OCCN3Cc2ccoc2)n1 | -11.3
O=C(c1ccoc1)N1CC[C@H]2C[C@@H](c3nnc(C4CC4)o3)O[C@@H]2C1 | -12
O=C(c1ccccc1)N1CC[C@H]2C[C@H](c3nnc(C4CC4)o3)O[C@@H]2C1 | -9.97
CN(CCO)C[C@@H]1CN(C(=O)Cc2ccc3ccccc3c2)C[C@@H]1CO | -4.17
COCc1nc(CNC2CCCC(C)(C)C2)no1 (centres undefined) | -9.03
CC1(C)C(C(=O)NCCC2CN(Cc3c[nH]cn3)CCO2)C1(C)C (centres undefined) | -13.9
Cc1ccc(Sc2ccc(CN3CCC4(CCCNC4=O)C3)o2)cc1 (centres undefined) | 5.69
Cc1nnc(SCCCNC(=O)Nc2ccc3c(c2)OCO3)s1 | 11.4
CCC(=O)N1CCCC(c2nc(-c3cccnn3)no2)C1 (centres undefined) | -0.455
Cc1cc(CN2C[C@H]3CC[C@@H]2CN(Cc2c(C)noc2C)C3)ccc1F | -5.96
Cc1cnc(CNC(=O)CC2CCc3ccccc32)cn1 (centres undefined) | -13.9
CSCCC(O)C(=O)N1CCC(OCc2cccnc2)CC1 (centres undefined) | 16.3
Cc1nn(CC(=O)O)c(C)c1NS(=O)(=O)c1cc2ccccc2s1 | 24.3
FC(F)(F)CCc1ccnc(N[C@H]2CC[C@H](n3cnnc3)CC2)n1 | -9.96
O=C(NCCN1CCCC(CO)C1)c1ccc2sccc2c1 (centres undefined) | -6.22
CN(C)C(C(=O)NCC(F)(F)F)c1cccc(F)c1 (centres undefined) | -2.03
Cc1nn(C)cc1C(C)Nc1ncnc2sccc12 (centres undefined) | 19.1
CNc1nc(N2CCN(CC=C(C)C)C(CCO)C2)nc2c1CCC2 (centres undefined) | 6.77

SMILES | cytotoxicity at 70.5 h [%]
c1ccc(OCc2noc(CN3CCC(N4CCSCC4)CC3)n2)cc1 | -5.9
NC1CCCCN(Cc2cc(-c3ccccc3OC(F)(F)F)no2)C1 (centres undefined) | -8.03
Cc1nn(C)c2ncnc(NCC(O)CN3CCCCC3)c12 (centres undefined) | 21.5
CCN(C)C[C@@H]1CN(Cc2cnc3c(S(C)(=O)=O)cnn3c2)C[C@@H]1CO | 1.07
CCC(C(=O)N(Cc1ccccn1)C1CCCCC1)n1cccn1 (centres undefined) | 22.3
COc1ccccc1N1CCC(N2CCOCC(CO)C2)CC1 (centres undefined) | -6.73
CN(CCCc1cnn(C)c1)C(=O)Nc1cccc2[nH]nnc12 | -7.81
CCn1ncc2[nH]c(-c3cc4c(cc3OC)OCO4)nc21 | -4.87
CCOc1ccc(-c2ccnc(COc3ccccc3)n2)cc1C(=O)O | -0.267
CC(Cn1cncn1)NCc1csc2c1CCCC2 (centres undefined) | -0.547
COc1ccc(/C=C/CN2CCCC3(C2)CN(C)C(=O)O3)cc1 (centres undefined) | 11.6
Cc1ccccc1C(C(=O)N(Cc1cnn(C)c1)CC(C)C)N(C)C (centres undefined) | -9.52
Cc1ccc2c(c1)CN(CC(=O)NCCc1ccc(F)cc1)CC(C)O2 (centres undefined) | -7.54
CCC[C@@H]1CN(c2cncc(C(=O)N3CCOCC3)n2)C[C@H]1N(C)C | 32.6
Fc1cccc(-n2cc(CN3CCCCC3CCn3ccnc3)cn2)c1 (centres undefined) | 4.66
Cn1nccc1C(=O)N1CCOC(Cc2ccc(F)cc2)C1 (centres undefined) | -3.53
CNc1ncc(C(=O)N2CCC3(CC2)Nc2ccccc2NC3=O)cn1 | -0.695
O=C1NCC2(CCCN(C(=O)Nc3ccc4occc4c3)CC2)O1 (centres undefined) | -1.24
Cc1nc2[nH]cc(C(=O)N3CCCCC3c3ccc(F)cc3)c(=O)n2n1 (centres undefined) | 3.11
COc1ccccc1N1CCN(Cc2nccc(OC)c2OC)CC1=O | 7.74
OC1(CN2CCc3nnc(Cc4cccnc4)n3CC2)CCCNC1 (centres undefined) | -4.53
CN(CCO)Cc1nnc(C2CCN(C(=O)c3cccn3C)CC2)n1C | -5.93

SMILES | cytotoxicity at 70.5 h [%]
CCSc1ccc(C(=O)N2CCC3(CC2)[C@H](O)C[C@@H]3O)s1 | -12.1
COc1cccc2c1OCC(Cc1cc(C(=O)N3CCCC3)ccn1)C2 (centres undefined) | -16.5
O=C(Nc1nncs1)N1CCCN(C2CCCC2)CC1 | 18.5
CC(C)c1cc(N2CC[C@H](F)C2)n2nccc2n1 | 2.77
Nc1nccc(-c2cccc3ccnn23)n1 | -1.89
COc1ccccc1CCc1nc(CC2CCN(C)CC2)no1 | -2.87
CCn1cncc1C1CC(=O)Nc2c1c(C)nn2C (centres undefined) | -4.74
CCOC(=O)c1n[nH]cc1CN1CCOC(Cc2ccc(OC)cc2)C1 (centres undefined) | -3.26
OCCCN1CCc2[nH]nc(C(c3ccccc3)c3ccccc3)c2C1 | -3.77
CC(C)c1cc(C(=O)N2CCN(C)[C@@H]3CS(=O)(=O)C[C@@H]32)no1 | -7.29
C[C@@H]1CN(C(=O)CCc2cnn(C)c2)CC[C@@]1(O)C1CCOCC1 | 8.15
Cc1ccccc1C(CC(=O)NCc1nnc(N)s1)c1ccccc1 (centres undefined) | -3.82
COc1cccc(N2CCN(Cc3ccc4occc4c3)CC2=O)c1 | -12.9
CC(C)(C(=O)NCC1CCN(Cc2ncc[nH]2)C1)c1ccccc1 (centres undefined) | -5.7
COc1ccc2c(CN3CCN(Cc4cccc(F)c4)CC3)n[nH]c2c1 | -3.1
Cc1ccc(N2CCN(C(=O)CCc3ccc(O)cc3)CC2=O)cc1 | -10.1
Cn1cc(CCC(=O)N2C[C@@H]3CC[C@H](C2)N(Cc2ccccn2)C3)cn1 | -14
CSCC1CCN(c2nc(N)ncc2C)CC1 | -9.1
CCc1oc(C(=O)NCCSc2ncn[nH]2)cc1CN1CCCC1 | -9.51
CC(C)Oc1cc(N2CC[C@H](CO)[C@@H](O)C2)nc(N)n1 | -8.74
CCCN1CCC(CC(=O)NCCc2nc(C)cc(C)n2)CC1 | -4.92
CCn1ncnc1C(C)NC(=O)CC1CCN(C(C)C)CC1 (centres undefined) | 30

SMILES | cytotoxicity at 70.5 h [%]
Cc1ccc(C(C(=O)O)N(C)CCN2CCOCC2)c(F)c1 (centres undefined) | -9.66
CCC(NC(=O)C1CCN(C(=O)C2CC2)CC1)c1cn2cccnc2n1 (centres undefined) | -8.35
CN1C(=O)[C@H]2CC[C@@H]1CN(C(=O)c1csc(Cc3ccccc3)n1)C2 | -11.4
CN(C)S(=O)(=O)N1CCCC(c2nccn2Cc2cccnc2)C1 (centres undefined) | -4.26
O=C(CCCN1CCCCC1)N1CCN(C(=O)c2nc[nH]n2)CC1 | -3.03
CN(CCCc1cnn(C)c1)C(=O)C1CCCN(C2CCCC2)C1 (centres undefined) | 7.47
CNc1ncc(CN(C)C(=O)c2ccccc2C2CCNC2)cn1 (centres undefined) | 1.83
CN(Cc1ncnn1C1Cc2ccccc2C1)C1CCS(=O)(=O)C1 (centres undefined) | -2.74
COCC(=O)N1CCCN(C(=O)C2Cc3ccccc3CN2C)CC1 (centres undefined) | 11.5
Cc1cc(C(F)(F)F)nc(CNC(=O)CCCN2CCCCC2)n1 | -2.62
O=C(c1cc(Cl)ccc1OC1CCN(C2CCCC2)CC1)N1CC(O)C1 | 11.8
COc1cccc(-n2cc(CN(C)C(=O)c3cc[nH]n3)cn2)c1 | -6.6
CNC(=O)CCCNc1cc(C)nc2cc(C)nn12 | 5.3
CCC(CO)N(Cc1ccccc1C)Cc1ccccc1C(=O)O (centres undefined) | -2.15
Cc1ccc(C#N)c(N2CCC3(CCCN(C4CCOCC4)C3=O)C2)n1 (centres undefined) | -1.26
O=c1[nH]c2cc3c(cc2cc1CN1CCCC1c1ccccn1)OCO3 (centres undefined) | -4.33
CC(=O)NC1CCN(c2nc(N(C)C)nc3c2CCCC3)CC1 | -1.98
c1cc(CN2CCCC2)cc(-n2ccnc2-c2ccncc2)c1 | 0.243
COCCN(C)C[C@@H]1CN(c2nc(C)cc(C)n2)C[C@@H]1CO | 1.4
CC(C)S(=O)(=O)N1CCCC(c2cccc(C(=O)O)c2)C1 (centres undefined) | -10.1
N[C@@H]1c2ccccc2C2(CCN(C(=O)c3ccc(=O)[nH]c3)CC2)[C@H]1O | -6.66
Cc1nc(CC2CCN(Cc3ccc(CCC(C)(C)O)cc3)CC2)no1 | 13.1

SMILES | cytotoxicity at 70.5 h [%]
O=C(O)CNc1cc(-c2cc(C3CC3)ncn2)c2cc[nH]c2n1 | 0.922
CN(CCc1cnn(C)c1)C(=O)Cn1c(=O)[nH]c2ccccc21 | -6.43
Cn1cc(Cl)c(CN2CCCC(Cn3cc(CO)nn3)C2)n1 (centres undefined) | -6.23
O=C(O)C1(Cc2ccc(F)cc2)CCCN(Cc2ccncc2)C1 (centres undefined) | 4.55
OCCC1CN(c2ncnc3[nH]cnc23)CCN1Cc1ccccc1 (centres undefined) | -3.48
COCC(c1ccccn1)N(C)C(=O)c1cc(-c2ccc(O)cc2)n[nH]1 (centres undefined) | -1.31
COc1ccccc1-n1cc(C(=O)NCCCn2ccnn2)cn1 | -8.35
COc1cccc(OCC2CCCN(C(=O)c3ccc(N)nc3)C2)c1 (centres undefined) | -11.6
c1cc2c(cc1Cn1cc(C3CCOC3)nn1)OCO2 (centres undefined) | -16.1
CCn1c(C2CCN(C(=O)COCC(F)(F)C(F)F)CC2)n[nH]c1=O | -6.79
Cc1nc(CC(=O)N2CCC3(CC2)CC(=O)N(CC2CCCO2)C3)cs1 (centres undefined) | -3.04
Cc1cccc(OC2CN(C(=O)C3CC(=O)N(C4CC4)C3)C2)c1 (centres undefined) | 4.04
CCC[C@H]1CN(S(C)(=O)=O)C[C@@H]1NC(=O)c1ccc(COC)cc1 | 0.361
CCc1ccccc1CN1CC[C@@]2(O)CCN(S(=O)(=O)N(C)C)C[C@H]2C1 | -3.87
Cc1ccc(OCC2CCCN(c3cc(C(N)=O)ccn3)C2)cc1 (centres undefined) | 4.54
CC(C)(CN1CCC2(CCNCC2)CC1)N1CCOCC1 | -3.64
Cc1cc(C)c2[nH]c(C(=O)NCCN3CCNC3=O)c(C)c2c1 | -5.43
CC(=O)N1CCN(Cc2ccc3c(c2)OCCO3)CC(O)C1 (centres undefined) | -10.7
Cn1cc(CN(C/C=C/c2ccccc2)C2CC2)cn1 | -8.38
Cc1c(-c2ccccc2)ncn1CC(c1cccnc1)N1CCOCC1 (centres undefined) | -2.03
COc1cc(CN2CC[C@@H](N3CCCCCC3)[C@H](O)C2)cc(Cl)c1OC | -4.33

Reference: ChEMBL document CHEMBL3507680, “University of Dundee, Gates Library screen for HepG2 cell viability”
